Measurements published in ChEMBL document CHEMBL5608241, “Discovery of Novel Non-nucleoside DOT1LR231Q Inhibitors with Improved Pharmacokinetic Properties and Anti-lung Cancer Efficacy” (J Med Chem, 2024).
Calls of active or inactive are those of the source. No cut-off for these calls is given here.

Columns and labels:
[1] = system: NCI-H460; experiment: Potency index, ratio of SGC0946 IC50 to test compound IC50 for antiproliferative activity against human NCI-H460 cells harboring DOT1L R231Q mutant (unknown origin) (1 to 416 residues) assessed as inhibition of cell proliferation incubated for 72 hrs by CCK-8 assay; type: functional
[2] = system: NCI-H460; experiment: Induction of DOT1L R231Q mutant (unknown origin) (1 to 416 residues) stabilization exogenously expressed in human NCI-H460 cells assessed as protection against protease E-mediated degradation preincubated for 7 days followed by protease digestion for 10 mins by DARTS assay; type: cell-based; settings: dose 1.25-5 µM, time 10090.0 min
[3] = system: NCI-H460; experiment: Downregulation of H3K79me2 expression in human NCI-H460 cells exogenously expressing DOT1L R231Q mutant (unknown origin) (1 to 416 residues) at 5 uM by Western blot analysis; type: functional, cell-based
[4] = system: NCI-H460; experiment: Effect on H3K27me3 expression in human NCI-H460 cells exogenously expressing DOT1L R231Q mutant (unknown origin) (1 to 416 residues) at 5 uM by Western blot analysis; type: functional, cell-based
[5] = system: NCI-H460; experiment: Effect on H3K4me1 expression in human NCI-H460 cells exogenously expressing DOT1L R231Q mutant (unknown origin) (1 to 416 residues) at 5 uM by Western blot analysis; type: functional, cell-based
[6] = system: NCI-H460; experiment: Effect on H3K36me2 expression in human NCI-H460 cells exogenously expressing DOT1L R231Q mutant (unknown origin) (1 to 416 residues) at 5 uM by Western blot analysis; type: functional, cell-based
[7] = system: NCI-H460; experiment: Effect on H3K27me3 expression in human NCI-H460 cells exogenously expressing wildtype DOT1L (unknown origin) (1 to 416 residues) at 5 uM by Western blot analysis; type: functional, cell-based
[8] = system: NCI-H460; experiment: Effect on H3K9me2 expression in human NCI-H460 cells exogenously expressing wildtype DOT1L (unknown origin) (1 to 416 residues) at 5 uM by Western blot analysis; type: functional, cell-based
[9] = system: NCI-H460; experiment: Effect on H3K36me2 expression in human NCI-H460 cells exogenously expressing wildtype DOT1L (unknown origin) (1 to 416 residues) at 5 uM by Western blot analysis; type: functional, cell-based
[10] = system: NCI-H460; experiment: Inhibition of sphere formation in human NCI-H460 cells exogenously expressing DOT1L R231Q mutant (unknown origin) (1 to 416 residues) assessed as reduction in self-renewal at 5 uM incubated for 7 to 14 days by inverted microscopic analysis relative to control; type: functional; settings: time 7-14 day
[11] = system: NCI-H460; experiment: Antimigratory activity in human NCI-H460 cells exogenously expressing wildtype DOT1L (unknown origin) (1 to 416 residues) assessed as decrease in number of migrating cells at 2.5 to 5 uM measured after 72 hrs by wound healing assay; type: functional, cell-based; settings: dose 2.5-5 µM
[12] = system: NCI-H460; experiment: Inhibition of sphere formation in human NCI-H460 cells exogenously expressing wildtype DOT1L (unknown origin) (1 to 416 residues) assessed as reduction in self-renewal at 2.5 to 5 uM incubated for 7 to 14 days by inverted microscopic analysis; type: functional, cell-based; settings: dose 2.5-5 µM, time 7-14 day
[13] = system: NCI-H460; experiment: Inhibition of colony formation in human NCI-H460 cells exogenously expressing DOT1L R231Q mutant (unknown origin) (1 to 416 residues) at 2.5 to 5 uM incubated for 7 to 14 days by crystal violet staining based light microscopic analysis; type: functional, cell-based; settings: dose 2.5-5 µM, time 7-14 day
[14] = system: NCI-H460; experiment: Inhibition of colony formation in human NCI-H460 cells exogenously expressing wildtype DOT1L (unknown origin) (1 to 416 residues) at 5 uM incubated for 7 to 14 days by crystal violet staining based light microscopic analysis relative to control; type: functional; settings: time 7-14 day
[15] = system: NCI-H460; experiment: Inhibition of colony formation in human NCI-H460 cells exogenously expressing DOT1L R231Q mutant (unknown origin) (1 to 416 residues) at 5 uM incubated for 7 to 14 days by crystal violet staining based light microscopic analysis relative to control; type: functional; settings: time 7-14 day
[16] = system: NCI-H460; experiment: Antitumor activity against human NCI-H460 cells harboring DOT1L R231Q mutant xenografted in male BALB/c-nu mouse model assessed as tumor growth inhibition at 20 mg/kg, ip administered five times a week for 3 weeks relative to control; type: functional; settings: NCI-H460, 504 h, read-out: TGI
[17] = Cmax in male Sprague-Dawley rat at 20 mg/kg, iv measured after 24 hrs by LC-MS/MS analysis; type: ADME, organism-based; settings: in vivo
[18] = AUC (0 to infinity) in male Sprague-Dawley rat at 20 mg/kg, iv measured after 24 hrs by LC-MS/MS analysis; type: ADME, organism-based; settings: in vivo
[19] = Half-life in male Sprague-Dawley rat at 20 mg/kg, iv measured after 24 hrs by LC-MS/MS analysis; type: ADME, organism-based; settings: in vivo
[20] = Clearance in male Sprague-Dawley rat at 20 mg/kg, iv measured after 24 hrs by LC-MS/MS analysis; type: ADME, organism-based; settings: in vivo
[21] = Volume of distribution at steady state in male Sprague-Dawley rat at 20 mg/kg, iv measured after 24 hrs by LC-MS/MS analysis; type: ADME, organism-based; settings: in vivo, read-out: Vdss
[22] = MRT (0 to infinity) in male Sprague-Dawley rat at 20 mg/kg, iv measured after 24 hrs by LC-MS/MS analysis; type: ADME, organism-based; settings: in vivo
[23] = Tmax in male Sprague-Dawley rat at 20 mg/kg, ip measured after 24 hrs by LC-MS/MS analysis; type: ADME, organism-based; settings: in vivo
[24] = Cmax in male Sprague-Dawley rat at 20 mg/kg, ip measured after 24 hrs by LC-MS/MS analysis; type: ADME, organism-based; settings: in vivo
[25] = system: NCI-H460; experiment: Inhibition of MAPK/ERK signaling pathway in human NCI-H460 cells exogenously expressing DOT1L R231Q mutant (unknown origin) (1 to 416 residues) assessed as decrease in RAF1 expression at 5 uM by Western blot analysis; type: cell-based
[26] = molecular target: T1, Dual specificity mitogen-activated protein kinase kinase; MEK1/2 (Homo sapiens) (UniProt P36507+Q02750); experiment: Inhibition of MEK phosphorylation in human NCI-H460 cells exogenously expressing DOT1L R231Q mutant (unknown origin) (1 to 416 residues) at 5 uM by Western blot analysis; type: cell-based
[27] = system: NCI-H460; experiment: Inhibition of ERK phosphorylation in human NCI-H460 cells exogenously expressing DOT1L R231Q mutant (unknown origin) (1 to 416 residues) at 5 uM by Western blot analysis; type: cell-based
[28] = system: NCI-H460; experiment: Inhibition of MAPK/ERK signaling pathway in human NCI-H460 cells exogenously expressing wildtype DOT1L (unknown origin) (1 to 416 residues) assessed as decrease in RAF1 expression at 5 uM by Western blot analysis; type: cell-based
[29] = molecular target: T1, Dual specificity mitogen-activated protein kinase kinase; MEK1/2 (Homo sapiens); experiment: Inhibition of MEK phosphorylation in human NCI-H460 cells exogenously expressing wildtype DOT1L (unknown origin) (1 to 416 residues) at 5 uM by Western blot analysis; type: cell-based
[30] = system: NCI-H460; experiment: Inhibition of ERK phosphorylation in human NCI-H460 cells exogenously expressing wildtype DOT1L (unknown origin) (1 to 416 residues) at 5 uM by Western blot analysis; type: cell-based

T1 sequence (P36507 whole entry, looked up, the tested form may be a part): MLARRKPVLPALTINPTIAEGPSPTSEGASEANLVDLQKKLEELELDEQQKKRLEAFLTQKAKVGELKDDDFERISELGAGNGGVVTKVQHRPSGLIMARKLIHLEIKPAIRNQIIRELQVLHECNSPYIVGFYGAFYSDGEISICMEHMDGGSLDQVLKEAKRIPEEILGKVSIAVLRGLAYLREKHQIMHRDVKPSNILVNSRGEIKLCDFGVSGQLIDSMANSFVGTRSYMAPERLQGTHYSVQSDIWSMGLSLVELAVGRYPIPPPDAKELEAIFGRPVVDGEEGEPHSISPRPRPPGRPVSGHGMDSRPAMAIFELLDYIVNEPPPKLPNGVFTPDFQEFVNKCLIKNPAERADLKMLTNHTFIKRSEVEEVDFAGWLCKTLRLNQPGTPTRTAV
T1 sequence (Q02750 whole entry, looked up, the tested form may be a part): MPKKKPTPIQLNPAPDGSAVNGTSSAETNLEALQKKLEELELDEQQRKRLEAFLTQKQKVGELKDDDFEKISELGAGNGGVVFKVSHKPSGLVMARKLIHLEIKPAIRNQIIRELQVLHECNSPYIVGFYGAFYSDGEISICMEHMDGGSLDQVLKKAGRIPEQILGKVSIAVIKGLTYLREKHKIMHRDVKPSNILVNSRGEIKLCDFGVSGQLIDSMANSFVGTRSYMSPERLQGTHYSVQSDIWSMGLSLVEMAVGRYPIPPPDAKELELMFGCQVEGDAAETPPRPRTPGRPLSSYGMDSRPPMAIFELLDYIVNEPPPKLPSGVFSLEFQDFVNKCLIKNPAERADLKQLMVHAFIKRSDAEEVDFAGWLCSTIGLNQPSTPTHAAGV

In the case of `CC(C)(C)c1ccc(NC(=O)NCCCN(CCCN2CCOCC2)CC2(O)CCN(c3nc(Cl)nc4sccc34)C2)cc1` (stereo not given), the “Ratio IC50” value [1] is reported as 1.3, the Activity [2] is reported as “Dose-Dependent Effect” and the Activity [3] is reported as “Active”. The Activity [4] was “inactive”, the Activity [5] was “inactive” and the Activity [6] was “inactive”. The Activity [7] was “inactive”, the Activity [8] was “inactive” and the Activity [9] was “inactive”. The inhibition at 5 µM [10] was 82%, the Activity [11] was “Active” and the inhibition [12] was “Active”. The inhibition [13] was “Active”, the inhibition at 5 µM [14] was 42% and the inhibition at 5 µM [15] was 72.8%. It also gave an inhibition in vivo at 20 mg/kg [16] of 60.6%, a Cmax [17] of 3000 ng/mL and an AUC(0-inf) [18] of 6200 ng·h/mL. The half-life [19] was 234 min, the clearance [20] was 55.2 mL/min/kg and the Vd [21] was 14.4 L/kg. The MRT inf [22] was 4.41 h, the Tmax [23] was 15 min and the Cmax [24] was 2570 ng/mL. For the same molecule, the inhibition [25] was “Active”, the inhibition [26] was “Active” and the inhibition [27] was “Active”. The inhibition [28] was “inactive”, the inhibition [29] was “inactive” and the inhibition [30] was “inactive”.
